Experimental data as given in PMC10458055, “Monocarboxylate Transporter 13 (MCT13/SLC16A13) Functions as a Novel Plasma Membrane Oligopeptide Transporter” (Nutrients, 2023).
One block for each molecule: values may come before it.

Key:
[1] = target: T1, MCT13 (SLC16A13), untagged, co-expressed with CD147 (Homo sapiens, UniProt Q7RTY0); test: inhibition of cephradine uptake in transfected HEK293T cells, LC-MS/MS; assay type: cell-based; conditions: HEK-293T; read-out: % inhibition at 10 mM
T1 construct: untagged full-length MCT13, transiently co-transfected with CD147 in HEK293T cells; with Basigin
T1 sequence (Q7RTY0 1-426): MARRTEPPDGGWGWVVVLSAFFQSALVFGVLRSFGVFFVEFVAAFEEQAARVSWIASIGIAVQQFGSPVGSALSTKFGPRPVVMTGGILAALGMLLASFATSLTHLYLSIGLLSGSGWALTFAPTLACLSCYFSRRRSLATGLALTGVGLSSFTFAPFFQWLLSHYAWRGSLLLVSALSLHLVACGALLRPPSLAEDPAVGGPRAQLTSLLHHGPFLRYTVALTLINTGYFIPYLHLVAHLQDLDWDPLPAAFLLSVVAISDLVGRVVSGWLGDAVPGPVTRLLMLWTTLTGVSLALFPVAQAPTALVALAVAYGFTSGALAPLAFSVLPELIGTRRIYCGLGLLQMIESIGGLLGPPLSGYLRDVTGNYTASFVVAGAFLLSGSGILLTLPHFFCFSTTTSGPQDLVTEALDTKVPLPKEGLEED
T1 sequence (P35613 22-385 partner): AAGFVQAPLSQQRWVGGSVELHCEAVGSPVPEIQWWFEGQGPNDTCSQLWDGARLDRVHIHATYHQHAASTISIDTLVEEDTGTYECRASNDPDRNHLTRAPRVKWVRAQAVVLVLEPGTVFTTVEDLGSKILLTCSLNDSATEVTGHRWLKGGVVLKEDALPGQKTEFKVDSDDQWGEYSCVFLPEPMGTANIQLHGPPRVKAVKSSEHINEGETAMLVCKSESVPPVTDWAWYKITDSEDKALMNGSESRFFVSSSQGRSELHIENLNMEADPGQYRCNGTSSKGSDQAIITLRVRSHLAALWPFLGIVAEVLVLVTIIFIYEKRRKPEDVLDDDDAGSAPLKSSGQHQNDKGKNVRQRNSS

[2] = target: T1, MCT13 (SLC16A13), untagged, co-expressed with CD147; test: as above; assay type: cell-based; conditions: 1 mM cephradine, KCl buffer, 5 min, mock subtracted
[3] = target: T1, MCT13 (SLC16A13), untagged, co-expressed with CD147; test: as above; assay type: cell-based; conditions: 1 mM cephradine, KCl buffer with 1% DMSO, 5 min, mock subtracted
[4] = substrate: CC1=C(C(=O)O)N2C(=O)[C@@H](NC(=O)[C@H](N)C3=CCC=CC3)[C@H]2SC1; test: uptake in transfected HEK293T cells, LC-MS/MS; assay type: cell-based, Homo sapiens

- inhibition at 10000 µM [1]: 43%
Molecule: Cc1nnc(SCC2=C(C(=O)O)N3C(=O)[C@@H](NC(=O)Cn4cnnn4)[C@H]3SC2)s1 [Cephazolin]

Molecule: CCCN(CCC)S(=O)(=O)c1ccc(C(=O)O)cc1 [Probenecid]
- % of control at 10 mM [2]: Probenecid and rifampicin, which are typical inhibitors of organic anion transporters

- inhibition at 10000 µM [1]: 30%
Molecule: N[C@@H](CCC(=O)N[C@@H](CS)C(=O)NCC(=O)O)C(=O)O [glutathione]

Molecule: CO[C@H]1/C=C/O[C@@]2(C)Oc3c(C)c(O)c4c(O)c(c(/C=N/N5CCN(C)CC5)c(O)c4c3C2=O)NC(=O)/C(C)=C\C=C\[C@H](C)[C@H](O)[C@@H](C)[C@@H](O)[C@@H](C)[C@H](OC(C)=O)[C@@H]1C [rifampicin]
- % of control at 50 uM [3]: Probenecid and rifampicin, which are typical inhibitors of organic anion transporters

B1: MCT13 (SLC16A13), untagged, co-expressed with CD147 (Homo sapiens) (protein)
chain: MARRTEPPDGGWGWVVVLSAFFQSALVFGVLRSFGVFFVEFVAAFEEQAARVSWIASIGIAVQQFGSPVGSALSTKFGPRPVVMTGGILAALGMLLASFATSLTHLYLSIGLLSGSGWALTFAPTLACLSCYFSRRRSLATGLALTGVGLSSFTFAPFFQWLLSHYAWRGSLLLVSALSLHLVACGALLRPPSLAEDPAVGGPRAQLTSLLHHGPFLRYTVALTLINTGYFIPYLHLVAHLQDLDWDPLPAAFLLSVVAISDLVGRVVSGWLGDAVPGPVTRLLMLWTTLTGVSLALFPVAQAPTALVALAVAYGFTSGALAPLAFSVLPELIGTRRIYCGLGLLQMIESIGGLLGPPLSGYLRDVTGNYTASFVVAGAFLLSGSGILLTLPHFFCFSTTTSGPQDLVTEALDTKVPLPKEGLEED
notes: untagged full-length MCT13, transiently co-transfected with CD147 in HEK293T cells; with Basigin
- Km ([4]; KCl buffer, 0.1-30 mM cephradine, co-expressed CD147): 2.83 ± 0.63 mM

B2: EGFP-tagged MCT13 (with CD147) (Homo sapiens) (protein)
chain: MARRTEPPDGGWGWVVVLSAFFQSALVFGVLRSFGVFFVEFVAAFEEQAARVSWIASIGIAVQQFGSPVGSALSTKFGPRPVVMTGGILAALGMLLASFATSLTHLYLSIGLLSGSGWALTFAPTLACLSCYFSRRRSLATGLALTGVGLSSFTFAPFFQWLLSHYAWRGSLLLVSALSLHLVACGALLRPPSLAEDPAVGGPRAQLTSLLHHGPFLRYTVALTLINTGYFIPYLHLVAHLQDLDWDPLPAAFLLSVVAISDLVGRVVSGWLGDAVPGPVTRLLMLWTTLTGVSLALFPVAQAPTALVALAVAYGFTSGALAPLAFSVLPELIGTRRIYCGLGLLQMIESIGGLLGPPLSGYLRDVTGNYTASFVVAGAFLLSGSGILLTLPHFFCFSTTTSGPQDLVTEALDTKVPLPKEGLEED
notes: EGFP-tagged (pEGFP-C1) full-length MCT13, co-transfected with CD147 in HEK293T cells; with Basigin
- Km ([4]; EGFP-tagged MCT13): 3.95 ± 0.53 mM
